In patent US7622499B2, “β-Benzyloxyaspartate derivatives with photosensitive groups” (Suntory Holdings Limited, priority 2003, dated 2009):

Assays:
[1] = Photolysis with UV lamp, photolysis rate measured by HPLC; assay type: physicochemical; settings: buffer, pH 7.4
Description: Photolysis was conducted by the known method (Takaoka, K. et al., Bioorganic & Medicinal Chemistry Letters, 13, 965-970, 2003), and the obtained samples were quantified by HPLC or a glutamate uptake assay.
The caged inhibitor was dissolved to 100 μM in a PBS(+) solution [140 mM NaCl, 5 mM KCl, 8 mM Na2HPO4, 1.5 mM KH2PO4, 1 mM CaCl2, 1 mM MgCl2, pH 7.4], and a 300 μL portion of the solution was placed in a quartz cuvette with a 1 mm optical path and situated at a location at 10 cm from a UV lamp (Spectroline ENF-260C/J, product of Spectronics Co.), and then covered with a black box and irradiated with 365 nm UV rays at room temperature for 1-120 minutes. The luminous energy under these conditions was approximately 0.5 J/cm^2 with 10 minutes of irradiation. The irradiated sample was quantified by HPLC.
The sample was subjected to UV irradiation for a prescribed period and then analyzed by HPLC [column: SP-120-5-ODS-AP (Daiso CO.); eluent, CH3CN:H2O:TFA=32:68:0.1 or gradient from CH3CN:H2O:TFA=32:68:0.1 to 50:50:0.1], and the concentration was determined from the ratio of UV absorption at 254 nm with respect to an internal substance (3′,4′-dimethoxyacetophenone, 10 μM). The percentage with respect to the concentration prior to irradiation was calculated and graphed, and the half-life was determined.

EAAT1-5 subtypes = settings: cited from earlier work; for inhibitory activity compared with L-TBOA: prior application of the inventors
glutamate receptor = settings: prior art statement; cited from earlier work

| half-life (photolysis, decay of caged compound) [1] [min] | Structure (SMILES) | inhibitory activity compared with L-TBOA (EAAT1-5 subtypes) | further results |
| --- | --- | --- | --- |
| 19 | O=C(O)COc1ccc2c(COC(=O)N[C@H](C(=O)O)[C@H](OCc3ccccc3)C(=O)O)cc(=O)oc2c1 [5a, (2S,3S)-3-benzyloxy-N-[7-(carboxymethoxy)coumarin-4-ylmethoxy]carbonylaspartate] | – | – |
| 7.8 | O=C(O)COc1cc2oc(=O)cc(COC(=O)N[C@H](C(=O)O)[C@H](OCc3ccccc3)C(=O)O)c2cc1OCC(=O)O [5b, (2S,3S)-3-benzyloxy-N-[6,7-bis(carboxymethoxy)coumarin-4-ylmethoxy]carbonylaspartate] | – | – |
| – | N[C@H](C(=O)O)[C@H](OCc1ccccc1)C(=O)O [L-TBOA, L-threo-β-benzyloxyaspartate] | – | blocker activity on glutamate transporters (EAAT1-5 subtypes; prior art statement): Particularly powerful blocker activity; affinity for glutamate receptor compared to existing inhibitors (glutamate receptor): lower affinity for glutamate receptor compared to existing inhibitors |
| – | COc1ccc(C(=O)Nc2cccc(CO[C@H](C(=O)O)[C@H](N)C(=O)O)c2)cc1 [PMB-TBOA] | more powerful inhibitory activity than L-TBOA | – |
| – | N[C@H](C(=O)O)[C@H](OCc1cccc(NC(=O)c2ccc(C(F)(F)F)cc2)c1)C(=O)O [TFB-TBOA] | more powerful inhibitory activity than L-TBOA | – |
